The values that follow come from patent publication US4789681A, “Cytoprotective guanidine derivatives useful in ischemic diseases” (Italfarmaco S.p.A., priority 1985, dated 1988).

One test has as its system rat (cerebral ischemia). Kind of test: In vivo activity in the rat: cerebral ischemia, EEG recovery. As to conditions: 3 mg/kg i.v., 10' before test. The procedure:
The model described by Kramer (Kramer W., Tuynmann J. A.; Brain Research 6, 686 (1967)) has been used.
Two electrodes for the bipolar recording of EEG (occipito-cervical and cerebellar area) were applied to rats, anaesthetized with N2 O (70%) and O2 (30%), after i.v. tubocurarine treatment. Ischemia was induced by increasing the intracranial pressure in cisterna magna with artificial C.S.F. and for the duration of 1 minute. EEG was recorded 3' before ischemia, during the first 6 minutes of the recirculation and up to 30' after ischemia. The time for a complete EEG recovering was measured.
The compounds were administered i.v. 10' before test.

A further test concerns rat (cardiac ischemia). Kind of test: In vivo activity in the rat: cardiac ischemia and reperfusion by ligation of the left coronary artery. The note with it: iv, 3 mg/kg, 10' to 30' before ligation.

Description for rat (cardiac ischemia): It has been used a cardiac ischemia and reperfusion model, on the anaesthetized rat, by ligation of the left coronary artery as described by C. […] In said model, after the ischemic state induced by the coronary ligation, the reperfusion of the cardiac tissue follows the release of the ligation itself. In said situation tachycardias, extrasystoles ventricular fibrillations are observed, followed, in most cases, by the animal's death.
This applies in both situation: hypoxia and reperfusion.

In turn, `COC(=O)[C@H](N)c1ccc(NC2=NCCN2)cc1` (single isomer, unassigned) [10a(R), Methyl (R) or (S) 2-amino-2-(4'-imidazolinyl-amino-phenilacetate] registered an EEG recovery time with rat (cerebral ischemia) of 62 ± 8 s.
In the case of `CN=C(N)NCCC[C@@H](N)C(=O)OC` [2b(R), (R)-N^G -methyl-arginine methylester], in the test with rat (cardiac ischemia), the “% effects (with respect to controls in the same situation) on death-rate” value came out at 10%, the “% effects (with respect to controls in the same situation) on fibrillations” value is recorded as 50% and the “% effects (with respect to controls in the same situation) on tachycardia V.” value is on record as 60%.
The molecule `COC(=O)[C@H](N)CCNNC(=N)N` [4a(R), methyl-(R)-2-amino-4-guanidylamino-butyrrate] had an EEG recovery time with rat (cerebral ischemia) of 58 ± 7 s.
Still for that read-out and setting: under `COC(=O)[C@H](N)[C@H]1CC[C@@H](NC(=N)N)CC1` [7a(R), Methyl (R) (1',4' cis or trans)-2-amino-2-(4'-guanidinocyclohexyl)-acetate] stands 49 ± 6 s.
In the test with rat (cerebral ischemia), `COC(=O)[C@@H](N)[C@H]1CC[C@@H](NC(=N)N)CC1` [7a(S), Methyl (S) (1',4' cis or trans)-2-amino-2-(4'-guanidinocyclohexyl)-acetate] gave an EEG recovery time of 43 ± 5 s.
The same measure, in the same setting: under `COC(=O)[C@H](N)CCCNC(=N)N` [D.A.M., Darginine methylester, reference compound] stands 45 ± 6 s; under `COC(=O)[C@@H](N)CCCNC(=N)N` [L.A.M., Larginine methylester, reference compound], 61 ± 8 s.
